Experimental data as given in US20110257204A1, “Penciclovir or Famciclovir for Treatment of Recurrent Genital Herpes with a One-Day Application” (priority 2005, published 2011).
Read-outs that look alike come from different tables or passages of the source.

How the values were obtained:
[1] = tested on: recurrent genital herpes lesions; format: in vivo, human; settings: for Time to healing of all lesions (median) / Proportion of aborted lesions: ITT; for Time to healing of all lesions (median): aborted lesions assigned time to healing of zero; for Time to healing of all lesions (median) / Proportion of aborted lesions / Time to healing of non-aborted lesions (median): famciclovir 1,000 mg b.i.d. for one day; for Hazard ratio, time to healing of non-aborted lesions: famciclovir 1,000 mg b.i.d. one day vs placebo
Method: The multi-center, multi-country, randomized, double-blind parallel-group, placebo controlled study is conducted to assess the efficacy and safety of a patient-initiated one-day treatment with famciclovir ([…]) 1,000 mg, twice a day, in patients with recurrent genital herpes. Approximately 450 eligible patients are randomized in a 1:1 ratio to receive either famciclovir (1,000 mg, twice a day) or matching placebo for one day. Patients are instructed to obtain a viral sample and initiate treatment within six hours of prodrome and/or recurrence of genital herpes lesions. All patients are required to return for clinic visits for observation of lesions on Days 2 and 3. Patients with lesions will continue with clinic visits on Days 4 and 5, then every other day until it is deemed that lesion healing has occurred however not to exceed Day 14. The following Table 1 represents the study design. Each patient receives either Famciclovir 2,000 mg [1,000 mg (4×250 mg capsules)] orally or placebo (4×250 mg matching placebo capsules) orally twice in one day. Study medication is to be administered twice in one day (during normal waking hours). One-day equals to 24 hours, if the patent starts a first dose in the PM the second should be taken upon waking in the AM. The first dose is taken within six hours of prodrome and/or genital herpes lesion occurrence. Within 6 hours of recurrence of either genital herpes symptom onset and/or lesion and prior to initiating therapy, patients obtain a viral sample for PCR at Visit 1. The sample is brought to the clinic at Visit 2. Patients maintain a diary to assess and record appearance/stage and location of lesion. From Visit 2 onwards, physicals are performed by clinician who examines genitalia for herpes lesions. Patients with lesions will continue with clinic visit on Days 4 (Visit 5) and 5 (Visit 6) then every other day until clinician investigator deems that the lesion healing has occurred however not to exceed Day 14. Should patients only experience symptoms, without onset of herpes lesion, these patients will return for clinic visits until resolution of symptoms. The primary efficacy variable refers to the investigator-assessed time to healing (re-epithelization, erythema may be present) of all non-aborted genital herpes lesions from the time of the first dose of study medication. Non-aborted lesions refer to all lesions requiring re-epithelization: lesions which undergo vesicular, ulcer/soft crust, hard crust formation. […] Primary efficacy variable is analyzed using the proportional hazards model, with treatment, gender and study center as explanatory variables, for patients over the modified ITT population. The Efron approximate likelihood method is used for resolution of ties. The 95% confidence intervals for the hazard ratio and median times to healing is calculated. The time to healing based on investigator-assessment (with aborted lesions assigned a time of zero) is analyzed on the PCR-positive and the ITT populations. A proportional hazards model is used in analysis, with treatment, gender, and study center as explanatory variables. The Efron approximate likelihood method is used for resolution of ties. A 95% confidence interval for the hazard ratio and median times to healing is calculated. Covariates and interactions listed for the primary efficacy variable are assessed separately by adding their terms into the proportional hazards model. The time to resolution of each symptom, as well as the time to resolution of all symptoms, will be analyzed using a proportional hazards model with treatment, gender, and study center as explanatory variables, over the ITT population. The proportion of patients reporting each symptom is presented descriptively, and compared between treatments using the Chochran-Mantel-Haenszel 9CHM) test, stratified by gender and study center, over the ITT population. […]

[2] = regardless of the dose given; cited from earlier work
[3] = tested on: recurrent genital herpes lesions; settings: previous trial; clinic-initiated treatment, low dose 125 mg twice a day for five days; cited from earlier work
[4] = patients receiving famciclovir in earlier studies; cited from earlier work

CC(=O)OCC(CCn1cnc2cnc(N)nc21)COC(C)=O [famciclovir, 9-(4-acetoxy-3-acetoxymethylbut-1-yl)-2-aminopurine]
Time to healing of all lesions (median) [1]: 3.5 days | Time to healing of all lesions (median) ([1]; listed as Famciclovir): 4.3 days | Proportion of aborted lesions [1]: 23.3% | Proportion of aborted lesions ([1]; listed as Famciclovir): 23.3% | Time to healing of non-aborted lesions (median) ([1]; Modified ITT, oral, patient-initiated within 6 hours): 4.3 days | Hazard ratio, time to healing of non-aborted lesions ([1]; Modified ITT, proportional hazards model): 1.64 | Time to healing of non-aborted lesions (median) ([1]; Per Protocol): 4.3 days | Hazard ratio, time to healing of non-aborted lesions ([1]; Per Protocol): 1.72 | Reduction of median time to healing of recurrent genital herpes lesions compared to placebo ([1]; famciclovir 1,000 mg twice a day, one day, immunocompetent patients, non-aborted lesions): two | Bioavailability [2]: 77% | Hazard ratio between famciclovir and placebo for time to healing [3]: 1.48 | Most commonly reported adverse events [4]: headache and nausea
